Measured values reported in patent US11077098B2, “Opioid receptor ligands and methods of using and making same” (TREVENA, INC., priority 2011, dated 2021).

Tested on: mice
Experiment: hot plate assay for antinociception in mice
Assay type: in vivo, mouse
Conditions: for analgesic effect in the mouse hot plate assay compared to morphine / ED50: SC; for ED50: tested thirty minutes after drug administration
Protocol: The hot plate assay is adapted from the procedure originally described by O'Callaghan and Holtzman (JPET, 192, 497, 1975) and is commonly used to determine the potential analgesic efficacy of opioid agonists. The antinociceptive effect of the composition(s) described herein in the hot plate is expressed in % MPE (Maximum Possible Effect).
Rats (175-250 g) or mice (20-30 g) acclimated to the vivarium for at least 48 hr prior to behavioral testing. Test drugs were administered by the subcutaneous (SC) route. Animals were placed on the hot plate, which the temperature was set at 50-56° C., depending on the in vitro potency of the compound. A cutoff time of 30-60 seconds was used depending on the temperature of the hot plate so that the paws of the animal displaying analgesia, was not damaged by the heat stimulus. The cutoff time was considered a 100% response to the thermal insult. Prior to drug treatment, each animal was tested to determine the baseline response. Thirty minutes after drug administration, animals were re-tested. Dose response experiments were performed to evaluate the potency of the test compound when various doses were administered at the point when maximal analgesia is observed.
The % MPE was calculated according to the following formula: % MPE=[(Post drug latency−baseline latency)/(60 or 30−baseline latency)]×100
ED50 values were calculated from the mean % MPE values for each group using log dose-response curves by least-squares regression analysis.

| Structure (SMILES) | analgesic effect in the mouse hot plate assay compared to morphine | ED50 (mouse hot plate) | % MPE (mouse hot plate, at 10 mg/kg SC) | efficacy in the mouse hot plate (at a dose of 10 mg/kg SC) |
| --- | --- | --- | --- | --- |
| c1ccc(CNCC[C@@]2(c3ccccn3)CCOC3(CCCC3)C2)cc1 [Compound 28] | more robust analgesic effect | 1.2 mg/kg | – | – |
| Fc1ccc([C@]2(CCNCc3ccccc3)CCOC3(CCCC3)C2)cc1 [Compound 81, benzyl({2-[(9R)-9-(4-fluorophenyl)-6-oxaspiro[4.5]decan-9-yl]ethyl})amine] | – | – | 100% at 10 | – |
| Cc1cccc(CNCC[C@@]2(c3ccc(F)cc3)CCOC3(CCCC3)C2)c1 [Compound 122, {2-[(9R)-9-(4-fluorophenyl)-6-oxaspiro[4.5]decan-9-yl]ethyl}[(3-methylphenyl)methyl]amine] | more robust analgesic effect | 1.1 mg/kg | – | – |
| Cc1ccc(CNCC[C@@]2(c3ccc(F)cc3)CCOC3(CCCC3)C2)s1 [Compound 145] | – | 5.9 mg/kg | – | – |
| CN1CC[C@]23c4c5ccc(O)c4O[C@H]2[C@@H](O)C=C[C@H]3[C@H]1C5 [Morphine, reference compound] | – | 3.8 mg/kg | – | full efficacy |
